{"source": "patent US20050124618A1", "about": "“Methods of modulating angiogenesis and cancer cell proliferation” (priority 2003, published 2005)", "key": {"U251 human glioma cells [1]": {"tested_on": "U251 human glioma cells", "assay": "DNA fragmentation and TUNEL assays in U251 cells", "assay_type": "cell-based", "settings": "HET0016", "protocol": "DNA Fragmentation and TUNEL Assays: HET0016-treated cultures were washed twice with 1×PBS and incubated with lysis buffer [20 mM Tris-HCl, 10 mM EDTA, 0.3% Triton X-100]. Genomic DNA was extracted and separated on a 2% agarose gel. Separated DNA was visualized by staining gels with ethidium bromide (EtBr). […] Coverslips were washed 3× with PBS and air-dried. Samples were then fixed with a freshly prepared fixation solution (4% paraformaldehyde in PBS, pH 7.4) for 1 hr at room temperature, followed by incubation in fresh permeabilization solution (0.1% Triton X-100 in 0.1% sodium citrate) for 2 min on ice. Finally, samples were processed using in situ Cell Death Detection Kit, AP (Roche Diagnostics, Indianapolis, Ind.) according to the manufacturer's recommendations."}, "HUVECs": {"tested_on": "HUVECs", "assay": "Proliferation of normal HUVECs (comparison with U251)", "assay_type": "cell-based, human", "settings": "10 μM HET0016, 48 hrs; DDMS concentration not given", "protocol": "Mean values±SD from three separate experiments, each performed in triplicate, are presented. *** indicates p<0.001 from the respective control values.\nCell Proliferation Assays: Proliferation studies were performed with cultures plated at a density that ensured exponential growth for at least 5 days. Growth medium was generally replaced by serum-free medium 24 hr after plating. Cells were treated with various concentrations of a given compounds for 24 or 48 hr as described in the Methods. […] Organic solvent never exceeded 0.1% of total culture volume. Cells were harvested by exposure to 0.05% trypsin/EDTA and counted using a hemocytometer."}, "20-HETE": {"tested_on": "20-HETE", "assay": "Urinary excretion of 20-HETE in rats (fluorescent HPLC assay)", "assay_type": "in vivo, rat", "settings": "chronic treatment with HET0016 for 7 days, 1 mg/kg ip twice daily", "excerpt": "The rats were divided in four groups. […] This dose was chosen based on our previous results (Kehl F et al., Am J Physiol Heart Circ Physiol 282: H1556-H1565, 2002).\nMeasurement of urinary excretion of 20-HETE: On the last day of electrical stimulation, rats were placed in a metabolic cage that efficiently separates urine from food. Just before the start of the urine collection, food was withdrawn to avoid contamination of the urine sample, and the 24-h control and treated urine samples were collected into a glass bottle packed with ice. The concentration of 20-HETE in the urine samples was measured using a fluorescent HPLC assay, as previously described (Maier K G et al., Am J Physiol Heart Circ Physiol 279: H863-H871, 2000). […] Excess dye was removed using Sep-Pak Vac extraction (Maier K G et al., Am J Physiol Heart Circ Physiol 279: H863-H871, 2000), and the samples were dried under argon, resuspended in 100 μl of methanol, and analyzed by reverse-phase HPLC (Waters) using a fluorescence detector (model number L-7480; Hitachi, Naperville, Ill.). The amount of 20-HETE in the sample was determined by comparing the area of the 20-HETE peak with that of the internal standard."}, "U251 human glioma cells [2]": {"tested_on": "U251 human glioma cells", "assay": "[3H]thymidine incorporation in U251 cells", "assay_type": "cell-based", "settings": "for inhibition at 10 µM: Homo sapiens", "protocol": "[^3H]Thymidine Incorporation Studies: Thymidine incorporation studies were performed with cells grown in 35-mm culture dishes. […] Palmitic acid and EtOH served as fatty acid and vehicle controls, respectively. At the end of the pulse, the medium was aspirated and the cells rinsed twice with cold 1× phosphate buffered saline (PBS). The rinsed cultures were fixed by exposure to cold 5% trichloracetic acid overnight at 4° C., after which fixed cells were extracted as described previously (Scholler et al., Mol. Pharmacol. 45: 944-954, 1994). A second set of non-fixed dishes was treated with 0.05% trypsin/EDTA to estimate cell numbers. [^3H]thymidine was detected by scintillation counting and expressed as dpm/10^3 cells."}}, "note": "Entries after “also recorded” stand apart in the source; their conditions may differ. Read-outs that look alike come from different tables or passages of the source.", "data": [{"smiles": "CCCCc1ccc(N=CNO)c(C)c1", "note": "[HET0016, N-hydroxy-N′-(4-butyl-2 methylphenyl) formamidine]", "values": [{"measurement": "induction of apoptosis (DNA fragmentation and TUNEL)", "setting": "U251 human glioma cells [1]", "result": "does not induce apoptosis"}, {"measurement": "effect on basal growth or proliferation of normal HUVECs", "setting": "HUVECs", "result": "Neither DDMS or HET0016 had any effect; also recorded: had no effect on the basal growth or proliferation; also recorded: had no effect on the proliferation"}, {"measurement": "reduction of 24-h urinary 20-HETE excretion compared with the control group (lecithin)", "setting": "20-HETE", "result": 36, "unit": "%"}, {"measurement": "inhibition of DNA synthesis ([3H]thymidine incorporation/uptake)", "setting": "U251 human glioma cells [2]; 10 μM HET0016, approximately 48 hr", "result": 66, "unit": "%"}, {"measurement": "inhibition at 10 µM", "setting": "U251 human glioma cells [2]; U-251, 10 μM HET0016, approximately 24 hr, read-out: inhibition of DNA synthesis ([3H]thymidine incorporation)", "result": 50, "unit": "%"}, {"measurement": "inhibition at 10 µM", "setting": "U251 human glioma cells [2]; U-251, 10 μM HET0016, approximately 48 hr, read-out: inhibition of DNA synthesis ([3H]thymidine incorporation/uptake)", "result": 65, "unit": "%"}]}]}
